Measurements taken from ChEMBL document CHEMBL4321846, “Discovery of a Potent and Selective Oral Inhibitor of ERK1/2 (AZD0364) That Is Efficacious in Both Monotherapy and Combination Therapy in Models of Nonsmall Cell Lung Cancer (NSCLC)” (J Med Chem, 2019).
Values belong to the compound of their own block, whether it stands above or below them. Calls of active or inactive are those of the source. The rule behind the calls is not given here.

Columns and labels:
[1] = biological target: T1, Mitogen-activated protein kinase 1 (Homo sapiens, UniProt P28482)
T1 sequence (P28482 whole entry): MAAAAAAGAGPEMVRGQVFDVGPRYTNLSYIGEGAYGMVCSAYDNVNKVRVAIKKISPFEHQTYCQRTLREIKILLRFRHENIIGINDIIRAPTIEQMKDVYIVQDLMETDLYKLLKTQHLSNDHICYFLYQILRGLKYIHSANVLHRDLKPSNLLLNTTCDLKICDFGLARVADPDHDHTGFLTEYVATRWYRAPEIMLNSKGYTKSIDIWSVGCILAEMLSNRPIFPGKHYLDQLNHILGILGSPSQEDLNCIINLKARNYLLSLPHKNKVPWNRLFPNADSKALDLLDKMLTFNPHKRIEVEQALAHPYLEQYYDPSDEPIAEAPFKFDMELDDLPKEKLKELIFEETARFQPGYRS

[2] = biological target: T1, Mitogen-activated protein kinase 1; remark: listed apart in the source
[3] = biological target: T1, Mitogen-activated protein kinase 1; remark: listed apart in the source
[4] = biological target: T1, Mitogen-activated protein kinase 1; remark: listed apart in the source
[5] = biological target: T1, Mitogen-activated protein kinase 1; remark: listed apart in the source
[6] = biological target: T1, Mitogen-activated protein kinase 1; test: Inhibition of MEK U911-activated ERK2 (unknown origin) using ERKtide as substrate preincubated for 20 mins followed by substrate addition in presence of ATP at Km concentration after 20 mins by rapidfire mass spectrometry analysis
[7] = biological target: T1, Mitogen-activated protein kinase 1; test: Inhibition of MEK U911-activated ERK2 (unknown origin) using ERKtide as substrate preincubated for 20 mins followed by substrate addition in presence of 1 mM ATP after 10 mins by rapidfire mass spectrometry analysis
[8] = biological target: T2, Mitogen-activated protein kinase; ERK1/ERK2 (Homo sapiens, UniProt P27361+P28482); test: Inhibition of ERK1/2 in human A375 cells assessed as inhibition of ERK phosphorylation after 2 hrs; format: cell-based
[9] = biological target: T2, Mitogen-activated protein kinase; ERK1/ERK2; test: Inhibition of ERK1/2 in human A375 cells assessed as inhibition of RSK phosphorylation after 2 hrs; format: cell-based
[10] = system: RAF proto-oncogene serine/threonine-protein kinase (Homo sapiens), P04049 [Y340D,Y341D]; test: Inhibition of recombinant human GST-tagged c-RAF1 Y340D/Y341D mutant catalytic domain expressed in baculovirus expression system at 1 uM relative to control
Chain of RAF proto-oncogene serine/threonine-protein kinase (Homo sapiens), P04049 [Y340D,Y341D] (P04049 whole entry Y340D/Y341D, the tested form may be a part): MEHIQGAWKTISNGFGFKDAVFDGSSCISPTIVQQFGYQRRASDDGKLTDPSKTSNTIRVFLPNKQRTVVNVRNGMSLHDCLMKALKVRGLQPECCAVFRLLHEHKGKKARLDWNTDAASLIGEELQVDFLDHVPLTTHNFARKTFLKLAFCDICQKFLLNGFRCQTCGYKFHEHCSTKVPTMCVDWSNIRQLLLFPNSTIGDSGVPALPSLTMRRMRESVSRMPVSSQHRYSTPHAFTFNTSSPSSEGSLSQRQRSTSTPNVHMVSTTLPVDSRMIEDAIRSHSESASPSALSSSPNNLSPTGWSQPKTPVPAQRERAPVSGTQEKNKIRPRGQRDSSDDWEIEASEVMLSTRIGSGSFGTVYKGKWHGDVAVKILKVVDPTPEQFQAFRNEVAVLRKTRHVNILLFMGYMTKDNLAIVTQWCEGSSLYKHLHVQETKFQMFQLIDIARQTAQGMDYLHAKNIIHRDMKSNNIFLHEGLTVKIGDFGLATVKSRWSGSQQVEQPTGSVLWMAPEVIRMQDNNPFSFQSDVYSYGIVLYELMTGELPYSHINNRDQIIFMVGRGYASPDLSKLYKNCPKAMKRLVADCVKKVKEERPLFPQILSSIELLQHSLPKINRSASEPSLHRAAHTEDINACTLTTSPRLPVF

[11] = biological target: Serine/threonine-protein kinase B-raf (Homo sapiens) (UniProt P15056); test: Inhibition of recombinant full length GST-tagged human BRAF1 expressed in baculovirus expression system at 1 uM relative to control
[12] = biological target: Dual specificity mitogen-activated protein kinase kinase 2 (Homo sapiens) (UniProt P36507); test: Inhibition of recombinant full length his-tagged human MEK2 expressed in baculovirus expression system at 1 uM relative to control
Chain of Dual specificity mitogen-activated protein kinase kinase 2 (Homo sapiens) (P36507 whole entry, the tested form may be a part): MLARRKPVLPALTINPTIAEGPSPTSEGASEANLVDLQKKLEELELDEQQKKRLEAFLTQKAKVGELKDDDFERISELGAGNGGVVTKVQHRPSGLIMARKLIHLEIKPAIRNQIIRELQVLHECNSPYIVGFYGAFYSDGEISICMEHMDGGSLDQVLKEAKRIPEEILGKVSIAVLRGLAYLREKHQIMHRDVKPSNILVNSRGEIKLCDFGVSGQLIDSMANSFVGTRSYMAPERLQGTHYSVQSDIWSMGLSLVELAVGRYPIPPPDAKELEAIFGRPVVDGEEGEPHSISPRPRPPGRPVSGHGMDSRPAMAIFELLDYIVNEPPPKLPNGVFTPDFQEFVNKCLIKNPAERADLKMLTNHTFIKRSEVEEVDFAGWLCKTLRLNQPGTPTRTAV

[13] = biological target: Dual specificity mitogen-activated protein kinase kinase 1 (Homo sapiens) (UniProt Q02750); test: Inhibition of recombinant full length His-tagged human MEK1 expressed in baculovirus expression system at 1 uM relative to control
Chain of Dual specificity mitogen-activated protein kinase kinase 1 (Homo sapiens) (Q02750 whole entry, the tested form may be a part): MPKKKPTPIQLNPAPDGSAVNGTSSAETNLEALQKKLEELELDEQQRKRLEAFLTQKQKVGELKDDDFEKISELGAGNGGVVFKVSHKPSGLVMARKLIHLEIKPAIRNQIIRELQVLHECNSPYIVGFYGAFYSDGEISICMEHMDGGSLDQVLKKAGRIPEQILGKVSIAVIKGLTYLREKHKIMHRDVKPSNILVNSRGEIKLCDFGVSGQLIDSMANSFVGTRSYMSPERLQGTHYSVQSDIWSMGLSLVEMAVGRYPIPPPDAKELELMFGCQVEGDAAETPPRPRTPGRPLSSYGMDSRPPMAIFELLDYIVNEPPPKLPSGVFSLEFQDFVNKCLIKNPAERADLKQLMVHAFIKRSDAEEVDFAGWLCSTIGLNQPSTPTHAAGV

[14] = biological target: Mitogen-activated protein kinase 15 (Homo sapiens) (UniProt Q8TD08); test: Binding affinity to recombinant human N-terminal 4xFLAG-tagged/C-terminal His8-fused ERK7 N-terminal domain (M1 to R354 residues) expressed in Sf9 insect cells
Chain of Mitogen-activated protein kinase 15 (Homo sapiens) (Q8TD08 whole entry, the tested form may be a part): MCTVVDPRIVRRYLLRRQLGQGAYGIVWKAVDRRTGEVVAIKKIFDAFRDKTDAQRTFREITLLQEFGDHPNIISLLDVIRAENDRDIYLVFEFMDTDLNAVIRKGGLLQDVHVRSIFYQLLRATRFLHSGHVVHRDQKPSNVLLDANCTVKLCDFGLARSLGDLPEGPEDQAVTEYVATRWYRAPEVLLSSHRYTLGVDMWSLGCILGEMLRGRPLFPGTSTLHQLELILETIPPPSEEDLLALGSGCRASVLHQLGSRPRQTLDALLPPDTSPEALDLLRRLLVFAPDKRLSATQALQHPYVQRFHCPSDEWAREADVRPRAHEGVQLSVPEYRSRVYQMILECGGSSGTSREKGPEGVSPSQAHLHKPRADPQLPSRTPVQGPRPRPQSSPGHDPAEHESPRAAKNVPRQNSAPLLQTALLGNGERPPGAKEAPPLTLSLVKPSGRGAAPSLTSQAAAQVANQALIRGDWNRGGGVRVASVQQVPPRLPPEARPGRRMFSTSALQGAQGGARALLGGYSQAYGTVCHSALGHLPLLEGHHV

[15] = biological target: NUAK family SNF1-like kinase 1 (Homo sapiens, UniProt O60285); test: Inhibition of recombinant full length human His-tagged ARK5 expressed in baculovirus expression system
[16] = biological target: T3, Cyclin-dependent kinase 5/CDK5 activator 1 (Homo sapiens, UniProt Q00535); test: Inhibition of recombinant full length human GST/His-tagged CDK5/p25 expressed in baculovirus expression system
T3 sequence (Q00535 whole entry): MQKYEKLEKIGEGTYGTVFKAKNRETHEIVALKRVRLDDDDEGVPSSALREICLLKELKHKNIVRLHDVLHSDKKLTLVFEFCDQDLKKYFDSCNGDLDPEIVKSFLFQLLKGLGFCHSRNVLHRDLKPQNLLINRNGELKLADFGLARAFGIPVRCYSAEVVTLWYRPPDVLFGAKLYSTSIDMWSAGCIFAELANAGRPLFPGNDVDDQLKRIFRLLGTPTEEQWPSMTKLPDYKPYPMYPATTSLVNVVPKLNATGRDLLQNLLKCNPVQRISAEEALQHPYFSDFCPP
T3 sequence (Q15078 whole entry, further chain): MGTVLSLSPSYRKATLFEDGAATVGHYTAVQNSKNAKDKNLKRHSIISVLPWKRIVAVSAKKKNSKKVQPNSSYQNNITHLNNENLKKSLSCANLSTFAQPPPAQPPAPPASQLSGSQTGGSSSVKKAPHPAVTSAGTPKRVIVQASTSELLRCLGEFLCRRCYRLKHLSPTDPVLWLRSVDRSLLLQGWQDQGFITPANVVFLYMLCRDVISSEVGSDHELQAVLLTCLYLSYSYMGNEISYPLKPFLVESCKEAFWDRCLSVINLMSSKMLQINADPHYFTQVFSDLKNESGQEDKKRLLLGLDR

[17] = biological target: T3, Cyclin-dependent kinase 5/CDK5 activator 1; test: Inhibition of recombinant full length human His-tagged CDK5/p35 expressed in baculovirus expression system
[18] = biological target: Cyclin-dependent kinase 5 (Homo sapiens) (UniProt Q00535); test: Binding affinity to recombinant human GST-tagged inactive CDK5
[19] = biological target: Dual specificity mitogen-activated protein kinase kinase 1 (Homo sapiens) (UniProt Q02750); test: Inhibition of recombinant full length His-tagged human MEK1 expressed in baculovirus expression system at > 10 uM
[20] = biological target: Cyclin-dependent kinase 2/cyclin E1 (Homo sapiens, UniProt P24941); test: Inhibition of human full length C-terminal His6-tagged Cdk2/human full length N-terminal GST-tagged Cyclin E expressed in baculovirus infected Sf21 insect cells after 1 hr by electromobility shift assay
A-375 = test: Antiproliferative activity at human A375 cells expressing BRAF V600E mutant assessed as growth inhibition; format: functional
Calu-6 [21] = test: Antiproliferative activity against human Calu6 cells expressing KRAS Q61K mutant assessed as growth inhibition; format: functional
[22] = biological target: T1, Mitogen-activated protein kinase 1; test: Binding affinity to non-phosphorylated biotinylated ERK2 (unknown origin) by SPR analysis
[23] = biological target: T1, Mitogen-activated protein kinase 1; test: Binding affinity to MEK-activated phosphorylated biotinylated ERK2 (unknown origin) by SPR analysis
[24] = biological target: Dual specificity mitogen-activated protein kinase kinase 1 (Homo sapiens) (UniProt Q02750); test: Inhibition of recombinant full length His-tagged human MEK1 expressed in baculovirus expression system at 1 uM by GST-tagged full length human inactive ERK2 coupled cascade assay relative to control
[25] = biological target: Mitogen-activated protein kinase 3 (Homo sapiens) (UniProt P27361); test: Inhibition of GST-tagged recombinant human full length ERK1 expressed in Escherichia coli at 1 uM relative to control
Chain of Mitogen-activated protein kinase 3 (Homo sapiens) (P27361 whole entry, the tested form may be a part): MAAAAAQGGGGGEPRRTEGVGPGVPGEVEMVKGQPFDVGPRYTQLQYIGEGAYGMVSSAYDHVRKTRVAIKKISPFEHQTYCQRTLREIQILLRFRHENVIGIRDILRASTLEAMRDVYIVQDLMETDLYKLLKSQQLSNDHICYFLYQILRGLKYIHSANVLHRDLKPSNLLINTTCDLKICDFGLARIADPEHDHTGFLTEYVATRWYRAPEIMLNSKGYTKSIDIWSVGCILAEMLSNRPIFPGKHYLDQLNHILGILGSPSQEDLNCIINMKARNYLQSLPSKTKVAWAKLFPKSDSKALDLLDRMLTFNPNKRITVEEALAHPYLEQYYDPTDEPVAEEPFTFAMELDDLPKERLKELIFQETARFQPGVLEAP

[26] = biological target: Mitogen-activated protein kinase kinase kinase 8 (Homo sapiens) (UniProt P41279); test: Inhibition of recombinant GST-tagged human COT catalytic domain expressed in baculovirus expression system at 1 uM by GST-tagged full length human inactive ERK2 expressed in baculovirus expression system coupled cascade assay relative to control
Chain of Mitogen-activated protein kinase kinase kinase 8 (Homo sapiens) (P41279 whole entry, the tested form may be a part): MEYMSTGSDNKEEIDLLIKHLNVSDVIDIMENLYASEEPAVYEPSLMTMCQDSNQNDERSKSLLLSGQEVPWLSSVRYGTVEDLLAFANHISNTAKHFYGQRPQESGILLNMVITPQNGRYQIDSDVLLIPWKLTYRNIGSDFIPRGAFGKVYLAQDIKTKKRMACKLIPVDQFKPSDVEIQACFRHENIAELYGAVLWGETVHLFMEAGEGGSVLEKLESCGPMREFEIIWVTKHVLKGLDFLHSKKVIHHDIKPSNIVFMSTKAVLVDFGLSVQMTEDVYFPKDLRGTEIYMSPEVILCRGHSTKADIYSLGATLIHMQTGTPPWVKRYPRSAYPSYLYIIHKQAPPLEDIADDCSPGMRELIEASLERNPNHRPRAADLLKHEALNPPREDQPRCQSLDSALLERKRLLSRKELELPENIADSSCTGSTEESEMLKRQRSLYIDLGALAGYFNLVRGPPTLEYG

[27] = biological target: Dual specificity mitogen-activated protein kinase kinase 2 (Homo sapiens) (UniProt P36507); test: Inhibition of recombinant full length his-tagged human MEK2 expressed in baculovirus expression system at 1 uM by GST-tagged full length human inactive ERK2 expressed in baculovirus expression system coupled cascade assay relative to control
[28] = system: RAF proto-oncogene serine/threonine-protein kinase (Homo sapiens), P04049 [Y340D,Y341D]; test: Inhibition of recombinant human GST-tagged c-RAF1 Y340D/Y341D mutant catalytic domain expressed in baculovirus expression system at 1 uM by GST-tagged full length human inactive ERK2 expressed in baculovirus expression system coupled cascade assay relative to control
[29] = biological target: Mitogen-activated protein kinase 15 (Homo sapiens) (UniProt Q8TD08); test: Inhibition of recombinant human N-terminal 4xFLAG-tagged/C-terminal His8-fused ERK7 N-terminal domain (M1 to R354 residues) expressed in Sf9 insect cells at 1 uM relative to control
[30] = biological target: CDK2/Cyclin O (Homo sapiens) (UniProt P24941+P22674); test: Inhibition of recombinant human full length N-terminal GST-tagged CDK2/Cyclin O expressed in baculovirus infected Sf9 cells at 1 uM relative to control
[31] = biological target: T4, CDK2/Cyclin A1 (Homo sapiens) (UniProt P24941+P78396); test: Binding affinity to recombinant human full length N-terminal GST-tagged CDK2/Cyclin A1 expressed in baculovirus infected Sf9 cells at 1 uM relative to control
[32] = biological target: Cyclin-dependent kinase 2/cyclin E1 (Homo sapiens) (UniProt P24864+P24941); test: Inhibition of human full length C-terminal His6-tagged Cdk2/human full length N-terminal GST-tagged Cyclin E expressed in baculovirus infected Sf21 insect cells at 1 uM after 1 hr by electromobility shift assay relative to control
[33] = biological target: T4, CDK2/Cyclin A1 (Homo sapiens); test: Inhibition of recombinant human full length His-tagged CDK2/Cyclin A expressed in baculovirus expression system at 1 uM relative to control
[34] = biological target: Cyclin-dependent kinase 5/CDK5 activator 1 (Homo sapiens) (UniProt Q00535+Q15078); test: Inhibition of recombinant full length human GST/His-tagged CDK5/p25 expressed in baculovirus expression system at 1 uM relative to control
[35] = biological target: NUAK family SNF1-like kinase 1 (Homo sapiens) (UniProt O60285); test: Inhibition of recombinant full length human His-tagged ARK5 expressed in baculovirus expression system at 1 uM relative to control
Calu-6 [36] = test: Antitumor activity against human Calu6 cells expressing KRAS Q61K mutant xenografted in athymic Nude-Foxn1nu mouse assessed as tumor growth inhibition at 15 mg/kg, po qd adminstered for 21 days and measured twice per week by caliper method relative to control; format: functional; conditions: Calu-6, po, 504 h, read-out: TGI
Calu-6 [37] = test: Antitumor activity against human Calu6 cells expressing KRAS Q61K mutant xenografted in athymic Nude-Foxn1nu mouse assessed as tumor regression at 50 mg/kg, po qd adminstered for 21 days and measured twice per week by caliper method relative to control; format: functional
Mus musculus [38] = test: Reduction in phosphorylated RSK level in athymic Nude-Foxn1nu mouse xenografted with human Calu6 cells expressing KRAS Q61K mutant at 25 mg/kg, po qd adminstered for 21 days and measured after 0.5 hrs post dose by Western blot analysis relative to control; format: functional; conditions: Calu-6, po
Mus musculus [39] = test: Reduction in phosphorylated RSK level in athymic Nude-Foxn1nu mouse xenografted with human Calu6 cells expressing KRAS Q61K mutant at 25 mg/kg, po qd adminstered for 21 days and measured after 6 hrs post dose by Western blot analysis relative to control; format: functional; conditions: Calu-6, po
A549 = test: Antitumor activity against human A549 cells harboring KRAS […] mutant xenografted in athymic Nude-Foxn1nu mouse assessed as tumor regression at 25 mg/kg, po bid adminstered for 21 days and measured twice per week in presence of selumetinib by caliper method relative to control; format: functional
[40] = Fraction unbound in mouse plasma; format: ADME, cell-free
[41] = Fraction unbound in rat plasma; format: ADME, cell-free
[42] = Fraction unbound in dog plasma; format: ADME, cell-free, Canis lupus familiaris
[43] = Fraction unbound in human plasma; format: ADME, cell-free
[44] = Volume of distribution at steady state in rat; format: ADME; conditions: in vivo, read-out: Vdss
[45] = Volume of distribution at steady state in dog; format: ADME, Canis lupus familiaris; conditions: in vivo, read-out: Vdss
[46] = Half life in po dosed rat; format: ADME, organism-based; conditions: in vivo
[47] = Half life in po dosed dog; format: ADME, organism-based, Canis lupus familiaris; conditions: in vivo
[48] = Oral bioavailability in rat; format: ADME, organism-based; conditions: in vivo
[49] = Oral bioavailability in dog; format: ADME, organism-based, Canis lupus familiaris; conditions: in vivo
[50] = biological target: Voltage-gated inwardly rectifying potassium channel KCNH2 (Homo sapiens, UniProt Q12809)
Chain of Voltage-gated inwardly rectifying potassium channel KCNH2 (Q12809 whole entry): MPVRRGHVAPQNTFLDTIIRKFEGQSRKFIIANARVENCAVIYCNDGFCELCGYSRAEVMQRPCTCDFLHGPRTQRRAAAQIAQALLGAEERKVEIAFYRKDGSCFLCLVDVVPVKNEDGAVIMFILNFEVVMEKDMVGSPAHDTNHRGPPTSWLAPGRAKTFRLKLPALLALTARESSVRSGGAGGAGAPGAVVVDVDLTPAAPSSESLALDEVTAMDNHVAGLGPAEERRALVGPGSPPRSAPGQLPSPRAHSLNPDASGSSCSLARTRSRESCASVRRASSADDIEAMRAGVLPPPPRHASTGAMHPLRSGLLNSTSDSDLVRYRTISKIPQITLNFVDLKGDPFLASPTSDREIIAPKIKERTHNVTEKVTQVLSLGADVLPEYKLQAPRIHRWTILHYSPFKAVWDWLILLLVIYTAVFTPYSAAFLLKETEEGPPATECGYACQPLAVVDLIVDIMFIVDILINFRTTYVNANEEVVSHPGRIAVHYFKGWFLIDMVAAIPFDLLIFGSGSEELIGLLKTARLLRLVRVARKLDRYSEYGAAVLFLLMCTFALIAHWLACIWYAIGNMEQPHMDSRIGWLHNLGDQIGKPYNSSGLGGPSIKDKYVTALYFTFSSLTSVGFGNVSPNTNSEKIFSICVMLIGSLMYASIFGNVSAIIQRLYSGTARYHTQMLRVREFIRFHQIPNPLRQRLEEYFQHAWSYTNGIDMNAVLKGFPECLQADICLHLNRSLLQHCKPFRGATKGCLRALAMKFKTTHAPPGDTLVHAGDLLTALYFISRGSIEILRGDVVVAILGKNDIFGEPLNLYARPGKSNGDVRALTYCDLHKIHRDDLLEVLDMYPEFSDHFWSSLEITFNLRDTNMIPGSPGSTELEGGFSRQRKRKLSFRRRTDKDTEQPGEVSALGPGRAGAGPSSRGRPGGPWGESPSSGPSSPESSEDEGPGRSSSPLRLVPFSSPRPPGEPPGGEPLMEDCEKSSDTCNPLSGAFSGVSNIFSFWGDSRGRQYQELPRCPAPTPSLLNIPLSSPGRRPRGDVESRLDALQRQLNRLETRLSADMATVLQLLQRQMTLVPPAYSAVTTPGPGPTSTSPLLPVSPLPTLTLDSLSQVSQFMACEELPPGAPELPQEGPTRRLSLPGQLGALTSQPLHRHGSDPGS

[51] = biological target: T1, Mitogen-activated protein kinase 1; remark: listed apart in the source

SMILES: O=C(Nc1ccc2[nH]nc(-c3ccncc3)c2c1)[C@@H]1CCN(CC(=O)N2CCN(c3ccc(-c4ncccn4)cc3)CC2)C1
Ka [1]: 9.4 ×10⁻⁵ /M/s
Ka [2]: 1.3 ×10⁻⁶ /M/s
Kdiss [3]: 4.4 ×10⁻⁵ /s
T1/2 [4]: 4.85 h
T1/2 [5]: 2.12 h

SMILES: Cc1cnc(Nc2ccnn2C)nc1-c1cn2c(n1)C(=O)N(Cc1cccc(Cl)c1)CC2
IC50 [6]: < 0.3 nM
IC50 [7]: 0.34 nM
IC50 [8]: 4.7 nM
IC50 [9]: 0.012 µM

SMILES: COC[C@H]1Cn2cc(-c3nc(Nc4ccnn4C)ncc3C)nc2C(=O)N1Cc1ccc(F)c(F)c1 [TIZATERKIB]
IC50 [6]: < 0.3 nM
IC50 [7]: 0.66 nM
IC50 [8]: 1.7 nM
IC50 [9]: 0.0057 µM
inhibition [10]: -3.5%
inhibition [11]: 5.8%
inhibition [12]: -2.2%
inhibition [13]: -2.5%
Activity [14]: 0.03 µM
IC50 [15]: 400 nM
IC50 [16]: 300 nM
IC50 [17]: 300 nM
Activity [18]: 1.9 µM
inhibition [19]: inactive
IC50 [20]: 1000 nM
GI50 (A-375): 60 nM
GI50 (Calu-6 [21]): 200 nM
Kd [22]: 0.1 nM
Kd [23]: 0.0501 nM
inhibition [24]: 104%
inhibition [25]: 105%
inhibition [26]: 103%
inhibition [27]: 101%
inhibition [28]: 101%
inhibition [29]: 99%
inhibition [30]: 95%
Activity [31]: 91%
inhibition [32]: 89%
inhibition [33]: 87%
inhibition [34]: 81%
inhibition [35]: 80%
inhibition in vivo at 15 mg/kg (Calu-6 [36]): 93%
Activity (Calu-6 [37]): 49%
inhibition in vivo at 25 mg/kg (Mus musculus [38]): 100%
inhibition in vivo at 25 mg/kg (Mus musculus [39]): 100%
Activity (A549): 28%
fraction unbound [40]: 0.12
fraction unbound [41]: 0.21
fraction unbound [42]: 0.44
fraction unbound [43]: 0.06 to 0.27
Vd [44]: 1.5 L/kg
Vd [45]: 1.2 L/kg
half-life [46]: 138 min
half-life [47]: 300 min
bioavailability [48]: 30%
bioavailability [49]: 100%
IC50 [50]: 11 µM
Ka [1]: 6.5 ×10⁻⁵ /M/s
Ka [2]: 8.9 ×10⁻⁵ /M/s
Kdiss [3]: 6 ×10⁻⁵ /s
Kdiss [51]: 4.5 ×10⁻⁵ /s
T1/2 [4]: 3.23 h
T1/2 [5]: 4.62 h

SMILES: Cc1cccc(CN2C(=O)c3cc(-c4nc(Nc5ccnn5C)ncc4C)cn3C[C@H]2C)n1
Ka [1]: 1.3 ×10⁻⁶ /M/s
Ka [2]: 1.9 ×10⁻⁶ /M/s
Kdiss [3]: 1 ×10⁻³ /s
Kdiss [51]: 3.2 ×10⁻⁴ /s
T1/2 [4]: 0.198 h
T1/2 [5]: 0.617 h

Continued, values first:

IC50 [6]: < 0.3 nM
IC50 [7]: 0.13 nM
IC50 [8]: > 14000 nM
IC50 [9]: 0.01 µM
SMILES: Cc1cnc(Nc2ccnn2C)nc1-c1cc2n(c1)CCN(Cc1cccc(Cl)c1)C2=O

IC50 [6]: < 0.3 nM
IC50 [7]: 0.35 nM
IC50 [9]: 0.02 µM
SMILES: Cc1cnc(Nc2ccnn2C)nc1-c1cc2n(c1)CCN(Cc1ccc(F)c(F)c1)C2=O
